Where a name gives a salt, the structure may show the parent alone. Read-outs that look alike come from different tables or passages of the source.
Target: SARS-CoV-2 3CLpro (Severe acute respiratory syndrome coronavirus 2, UniProt P0DTD1)
Assay: biochemical
Format: biochemical
Set-up: Replicate_1 / Replicate_2 / mean / mean (LOPAC_screen_w_protease): unit not given here
Conditions: for mean (LOPAC screen with protease) / Replicate_1 (LOPAC screen with protease) / Replicate_2 (LOPAC screen with protease): primary screen at 5 µM; for inhibition at 5 µM: 4 h
[1] = sheet LOPAC_screen_w_protease, mean of two replicates
[2] = sheet LOPAC_screen_w_protease, replicate 1
[3] = sheet LOPAC_screen_w_protease, replicate 2
[4] = sheet LOPAC_screen_w_protease, LOPAC1280 at 5 µM, mean of two replicates
[5] = sheet LOPAC_screen_w_protease, LOPAC1280 at 5 µM, replicate 1
[6] = sheet LOPAC_screen_w_protease, LOPAC1280 at 5 µM, replicate 2
[7] = sheet LOPAC_screen_w_protease, primary screen with protease, mean of two replicates
[8] = sheet LOPAC_screen_w_protease, primary screen with protease, replicate 1
[9] = sheet LOPAC_screen_w_protease, primary screen with protease, replicate 2
[10] = sheet LOPAC_screen_w_protease, primary screen with protease, 5 µM, mean of two replicates, read-out: mean
[11] = sheet LOPAC_screen_w_protease, primary screen with protease, 5 µM, replicate 1, read-out: Replicate_1
[12] = sheet LOPAC_screen_w_protease, primary screen with protease, 5 µM, replicate 2, read-out: Replicate_2
[13] = sheet LOPAC_screen_w_protease, primary screen of LOPAC1280 at 5 µM with protease, mean of the two replicates, read-out: mean
[14] = sheet LOPAC_screen_w_protease, primary screen of LOPAC1280 at 5 µM with protease, replicate 1, read-out: Replicate_1
[15] = sheet LOPAC_screen_w_protease, primary screen of LOPAC1280 at 5 µM with protease, replicate 2, read-out: Replicate_2
[16] = sheet LOPAC_screen_w_protease, LOPAC1280 primary screen with protease, 5 µM compound, mean of the two replicates, read-out: mean
[17] = sheet LOPAC_screen_w_protease, LOPAC1280 primary screen with protease, 5 µM compound, replicate 1, read-out: Replicate_1
[18] = sheet LOPAC_screen_w_protease, LOPAC1280 primary screen with protease, 5 µM compound, replicate 2, read-out: Replicate_2
[19] = sheet LOPAC_screen_w_protease, LOPAC1280 primary screen at 5 µM, with protease, mean of the two replicates
[20] = sheet LOPAC_screen_w_protease, LOPAC1280 primary screen at 5 µM, with protease, replicate 1
[21] = sheet LOPAC_screen_w_protease, LOPAC1280 primary screen at 5 µM, with protease, replicate 2
[22] = LOPAC1280 primary screen with protease, 5 µM compound, mean of two replicates
[23] = LOPAC1280 primary screen with protease, 5 µM compound, replicate 1
[24] = LOPAC1280 primary screen with protease, 5 µM compound, replicate 2
[25] = sheet LOPAC_screen_w_protease, LOPAC1280 at 5 µM, mean of two replicates, read-out: mean
[26] = sheet LOPAC_screen_w_protease, LOPAC1280 at 5 µM, replicate 1, read-out: Replicate_1
[27] = sheet LOPAC_screen_w_protease, LOPAC1280 at 5 µM, replicate 2, read-out: Replicate_2
[28] = sheet LOPAC_screen_w_protease, primary screen of LOPAC1280 at 5 µM with protease, mean of the two replicates
[29] = sheet LOPAC_screen_w_protease, primary screen of LOPAC1280 at 5 µM with protease, replicate 1
[30] = sheet LOPAC_screen_w_protease, primary screen of LOPAC1280 at 5 µM with protease, replicate 2
[31] = LOPAC1280 primary screen with protease, 5 µM compound, replicate 1, read-out: Replicate_1 (LOPAC_screen_w_protease)
[32] = LOPAC1280 primary screen with protease, 5 µM compound, replicate 2, read-out: Replicate_2 (LOPAC_screen_w_protease)
[33] = LOPAC1280 primary screen with protease, 5 µM compound, mean of the two replicates

COc1ccccc1N1CCN(CCN(C(=O)c2ccc(F)cc2)c2ccccn2)CC1.Cl.Cl [p-MPPF dihydrochloride]
mean (LOPAC screen with protease) [1]: 7.242 | Replicate_1 (LOPAC screen with protease) [2]: 5.881 | Replicate_2 (LOPAC screen with protease) [3]: 8.603

NC(N)=NOCC[C@H](N)C(=O)O.O=S(=O)(O)O [L-Canavanine sulfate]
mean [4]: 1.293 | Replicate_1 [5]: 1.623 | Replicate_2 [6]: 0.9625

CCCCC1(C2CCCC2)Cc2cc(OCC(=O)O)c(Cl)c(Cl)c2C1=O (stereo in doubt) [R(+)-Butylindazone]
mean [7]: 2.217 | Replicate_1 [8]: 3.715 | Replicate_2 [9]: 0.7192

C[N+]1(C)CCc2cc3c(cc2[C@H]1[C@@H]1OC(=O)c2c1ccc1c2OCO1)OCO3.[Br-] [(-)-Bicuculline methbromide, 1(S), 9(R)]
mean [7]: 2.342 | Replicate_1 [8]: 1.484 | Replicate_2 [9]: 3.2

C[C@@H]1O[C@@H]1P(=O)(O)O [Phosphomycin disodium]
inhibition at 5 µM [10]: -0.258% | inhibition at 5 µM [11]: -0.0304% | inhibition at 5 µM [12]: -0.485%

C=C1C(=O)O[C@H]2[C@H]1CC/C(C)=C/CC[C@@]1(C)O[C@@H]21 [Parthenolide]
inhibition at 5 µM [13]: 3.43% | inhibition at 5 µM [14]: 3.99% | inhibition at 5 µM [15]: 2.86%

CC(C)(CO)Cc1cc(C(C)(C)C)c(O)c(C(C)(C)C)c1 [CGP-7930]
mean [4]: 1.164 | Replicate_1 [5]: 0.8273 | Replicate_2 [6]: 1.5

CC(COc1ccccc1)N(CCCl)Cc1ccccc1 (stereo not shown) [Phenoxybenzamine hydrochloride]
inhibition at 5 µM [16]: 4.33% | inhibition at 5 µM [17]: 4.24% | inhibition at 5 µM [18]: 4.41%

CCCN1CCO[C@@H]2c3cc(O)ccc3OC[C@H]21.Cl [S(+)-PD 128,907 hydrochloride]
mean [19]: 0.4405 | Replicate_1 [20]: 0.5719 | Replicate_2 [21]: 0.3091

Nc1nc(SCc2ccc([N+](=O)[O-])cc2)c2ncn([C@@H]3O[C@H](CO)[C@@H](O)[C@H]3O)c2n1 [S-(4-Nitrobenzyl)-6-thioguanosine]
mean (sheet LOPAC_screen_w_protease, primary screen with protease, 5 µM, mean of two replicates): -0.2707 | Replicate_1 (sheet LOPAC_screen_w_protease, primary screen with protease, 5 µM, replicate 1): 0.3471 | Replicate_2 (sheet LOPAC_screen_w_protease, primary screen with protease, 5 µM, replicate 2): -0.8885

OC[C@H]1NC[C@@H](O)[C@@H]1O [1,4-Dideoxy-1,4-imino-D-arabinitol]
mean (LOPAC_screen_w_protease) [22]: 1.627 | Replicate_1 (LOPAC_screen_w_protease) [23]: 1.388 | Replicate_2 (LOPAC_screen_w_protease) [24]: 1.866

O=C(O)/C=C\C(=O)O.O=[N+]([O-])c1ccc2nc(N3CCNCC3)ccc2c1 [Quipazine, 6-nitro-, maleate]
mean [19]: 0.7082 | Replicate_1 [20]: 1.452 | Replicate_2 [21]: -0.03606

CCCCCCCCCCCCCCSCC(=O)O [Tetradecylthioacetic acid]
inhibition at 5 µM (sheet LOPAC_screen_w_protease, LOPAC1280 primary screen at 5 µM, with protease, mean of two replicates, read-out: mean): -1.74% | inhibition at 5 µM (sheet LOPAC_screen_w_protease, LOPAC1280 primary screen at 5 µM, with protease, replicate 1, read-out: Replicate_1): -1.66% | inhibition at 5 µM (sheet LOPAC_screen_w_protease, LOPAC1280 primary screen at 5 µM, with protease, replicate 2, read-out: Replicate_2): -1.82%

CC(C(=O)O)c1ccc(CC2CCCC2=O)cc1 (stereo not shown) [loxoprofen]
inhibition at 5 µM [25]: 1.2% | inhibition at 5 µM [26]: 0.313% | inhibition at 5 µM [27]: 2.09%

COc1ccccc1NC(=O)Nc1nc(-c2cccnc2)nc2ccccc12 [VUF 5574]
mean [7]: 2.164 | Replicate_1 [8]: 1.496 | Replicate_2 [9]: 2.8319

Cl.c1ccc(CN(CC2=NCCN2)c2ccccc2)cc1 [Antozoline hydrochloride]
mean [28]: 3.208 | Replicate_1 [29]: 3.9302 | Replicate_2 [30]: 2.486

O=C(O)c1cc(O)c2ccc(Cl)cc2n1 [7-Chlorokynurenic acid]
inhibition at 5 µM [13]: 3.48% | inhibition at 5 µM [14]: 3.97% | inhibition at 5 µM [15]: 2.98%

Cl.Nc1ccn([C@@H]2O[C@H](CO)[C@@H](O)[C@@H]2O)c(=O)n1
mean [7]: 2.239 | Replicate_1 [8]: 1.947 | Replicate_2 [9]: 2.5319

COC(=O)c1cc2c(cn1)[nH]c1ccccc12 [Methyl beta-carboline-3-carboxylate]
mean [28]: 3.265 | Replicate_1 [29]: 4.868 | Replicate_2 [30]: 1.662

NCCS(=O)(=O)O [Taurine]
inhibition at 5 µM [31]: 2.66% | inhibition at 5 µM [32]: 1.18% | mean (LOPAC_screen_w_protease) [33]: 1.917

C[C@H](O)C(=O)C1=Nc2c(nc(N)[nH]c2=O)NC1 [Sepiapterin]
inhibition at 5 µM (sheet LOPAC_screen_w_protease, primary screen with protease, mean of two replicates, read-out: mean): 2.57% | inhibition at 5 µM (sheet LOPAC_screen_w_protease, primary screen with protease, replicate 1, read-out: Replicate_1): 2.59% | inhibition at 5 µM (sheet LOPAC_screen_w_protease, primary screen with protease, replicate 2, read-out: Replicate_2): 2.55%

CC(=N)NCCCC[C@H](N)C(=O)O.Cl [L-N6-(1-Iminoethyl)lysine hydrochloride]
mean [7]: 2.233 | Replicate_1 [8]: 3.474 | Replicate_2 [9]: 0.9911

CCCn1cnc2c1c(=O)n(CCCCC(C)=O)c(=O)n2C [Propentofylline]
inhibition at 5 µM [25]: 1.26% | inhibition at 5 µM [26]: 2.2% | inhibition at 5 µM [27]: 0.327%

Fc1ccc(C(c2ccc(F)cc2)N2CCN(C/C=C/c3ccccc3)CC2)cc1 [Flunarizine dihydrochloride]
inhibition at 5 µM (sheet LOPAC_screen_w_protease, primary screen with protease, compound at 5 µM, mean of two replicates, read-out: mean): 2.85% | inhibition at 5 µM (sheet LOPAC_screen_w_protease, primary screen with protease, compound at 5 µM, replicate 1, read-out: Replicate_1): 3.4% | inhibition at 5 µM (sheet LOPAC_screen_w_protease, primary screen with protease, compound at 5 µM, replicate 2, read-out: Replicate_2): 2.29%

NC(=O)C1=CN([C@@H]2O[C@H](COP(=O)([O-])OP(=O)([O-])OC[C@H]3O[C@@H](n4cnc5c(N)ncnc54)[C@H](OP(=O)([O-])[O-])[C@@H]3O)[C@@H](O)[C@H]2O)C=CC1.[Na+].[Na+].[Na+].[Na+] [NADPH tetrasodium]
mean [4]: 1.2074 | Replicate_1 [5]: 1.812 | Replicate_2 [6]: 0.6031

NS(=O)(=O)c1cc2c(cc1Cl)N=CNS2(=O)=O [Chlorothiazide]
inhibition at 5 µM [25]: 0.892% | inhibition at 5 µM [26]: 1.61% | inhibition at 5 µM [27]: 0.17%

c1ccc2c(CC3=NCCN3)cccc2c1 [Naphazoline hydrochloride]
inhibition at 5 µM [16]: 4.49% | inhibition at 5 µM [17]: 4.4% | inhibition at 5 µM [18]: 4.59%

COC(=O)[C@@H]1[C@H]2C[C@H]3c4[nH]c5ccccc5c4CCN3C[C@@H]2CC[C@@H]1O [Yohimbine hydrochloride]
inhibition at 5 µM [10]: 0.269% | inhibition at 5 µM [11]: -0.997% | inhibition at 5 µM [12]: 1.53%

Br.CN1CCc2cc(O)cc3c2[C@H]1Cc1ccc(O)c(O)c1-3
mean (LOPAC screen with protease) [1]: 100.809 | Replicate_1 (LOPAC screen with protease) [2]: 99.6837 | Replicate_2 (LOPAC screen with protease) [3]: 101.934

CC(=O)C(C)=NO [2,3-Butanedione monoxime]
mean (LOPAC_screen_w_protease) [22]: 1.644 | Replicate_1 (LOPAC_screen_w_protease) [23]: 1.791 | Replicate_2 (LOPAC_screen_w_protease) [24]: 1.497

Oc1ccc(/C=C/c2cc(O)cc(O)c2)cc1 [Resveratrol]
inhibition at 5 µM (read-out: Replicate_2): -6.92%

O=C(O)c1nn(Cc2ccc(Cl)cc2Cl)c2ccccc12 [Lonidamine]
inhibition at 5 µM [10]: 0.331% | inhibition at 5 µM [11]: 0.572% | inhibition at 5 µM [12]: 0.0889%

CNCCc1ccc(O)c(O)c1.Cl [N-Methyldopamine hydrochloride]
mean [4]: 1.304 | Replicate_1 [5]: 0.8088 | Replicate_2 [6]: 1.799

CC(C)(C)c1onc(OCP(=O)(O)O)c1CC(N)C(=O)O (stereo not shown) [ATPO]
mean (sheet LOPAC_screen_w_protease, primary screen with protease, compound at 5 µM, mean of two replicates): 3.0772 | Replicate_1 (sheet LOPAC_screen_w_protease, primary screen with protease, compound at 5 µM, replicate 1): 4.002 | Replicate_2 (sheet LOPAC_screen_w_protease, primary screen with protease, compound at 5 µM, replicate 2): 2.152

NC(=NCc1ccccc1)NC(=O)c1nc(Cl)c(N)nc1N [Benzamil hydrochloride]
inhibition at 5 µM [31]: 1.66% | inhibition at 5 µM [32]: 1.83% | mean (LOPAC_screen_w_protease) [33]: 1.743
